Laboratory results as given in US20070071831A1, “Product for the prevention and the treatment of grapevine infections and method of preparation thereof” (Vomm Impianti e Processi S.p.A., priority 2005, published 2007).

Columns and labels:
corky bark = test: Vineyard treatment of grapevine plants against corky bark; type: in vivo; settings: remaining plants (more than 500) of the same vineyard
Source text: Finally, some preliminary experiments have shown that the product of the invention is effective not only against downy mildew infections but also against other plant diseases such as, in particular, corky bark, caused by the phytoplasm transmitted by the vector Scaphoideus titanus Ball, a Deltocefalinae plathopper.
In particular the product has been tested on 70 grapevine plants arranged on five rows in a vineyard wherein the remaining plants (more than 500) have been treated with a conventional synthetic plant protection product (Fenitrothion).

downy mildew = test: Vineyard treatment of grapevine plants against downy mildew; type: in vivo, Plasmopara viticola; settings: remaining plants of a vineyard of approximately 1000 grapevine plants; same number and times of applications; beginning of March to end of July
Experimental: The product obtained according to example 1 was diluted with water, mixing a part of product with ten parts of water and it was used to treat the grapevine plants.
The product thus diluted was applied by spraying on 70 grapevine plants arranged in 5 rows in a vineyard comprising approximately 1000 grapevine plants. The remaining plants were then treated with a conventional synthetic plant protection product (Metiram).
The treatments were carried out during the period between the beginning of March and the end of July, each time applying a quantity of 100 g of diluted product per plant. The same number of applications as those of the conventional plant protection product were carried out, at the same times.

## COP(=S)(OC)Oc1ccc([N+](=O)[O-])c(C)c1 [Fenitrothion]
Corky bark
  plants attacked by corky bark: majority

## Metiram
Downy mildew
  plants showing obvious signs of downy mildew infestation: 18%
